Molecular target: T1, N-type Ca2+ channels in IMR-32 cells (Homo sapiens, UniProt Q00975)
T1 construct: host or cells: IMR-32 cells, differentiated with dibutyryl cAMP and bromodeoxyuridine
Assay: Inhibition of N-type calcium flux in IMR-32 cells (Indo-1 fluorescence, nitrendipine present)
Format: cell-based
Conditions: for inhibition at 1 µM / inhibition at 10 µM: IMR-32; for IC50: IMR-32 cells, 5 μM nitrendipine, K+ depolarization
Summary of the method: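 With L-type flux blocked by 5 μM nitrendipine, N-type Ca2+ entry was read as the Indo-1 emission ratio (400/490 nm, excitation 350 nm) at 30° C after KCl depolarization.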

T1 sequence (Q00975 whole entry): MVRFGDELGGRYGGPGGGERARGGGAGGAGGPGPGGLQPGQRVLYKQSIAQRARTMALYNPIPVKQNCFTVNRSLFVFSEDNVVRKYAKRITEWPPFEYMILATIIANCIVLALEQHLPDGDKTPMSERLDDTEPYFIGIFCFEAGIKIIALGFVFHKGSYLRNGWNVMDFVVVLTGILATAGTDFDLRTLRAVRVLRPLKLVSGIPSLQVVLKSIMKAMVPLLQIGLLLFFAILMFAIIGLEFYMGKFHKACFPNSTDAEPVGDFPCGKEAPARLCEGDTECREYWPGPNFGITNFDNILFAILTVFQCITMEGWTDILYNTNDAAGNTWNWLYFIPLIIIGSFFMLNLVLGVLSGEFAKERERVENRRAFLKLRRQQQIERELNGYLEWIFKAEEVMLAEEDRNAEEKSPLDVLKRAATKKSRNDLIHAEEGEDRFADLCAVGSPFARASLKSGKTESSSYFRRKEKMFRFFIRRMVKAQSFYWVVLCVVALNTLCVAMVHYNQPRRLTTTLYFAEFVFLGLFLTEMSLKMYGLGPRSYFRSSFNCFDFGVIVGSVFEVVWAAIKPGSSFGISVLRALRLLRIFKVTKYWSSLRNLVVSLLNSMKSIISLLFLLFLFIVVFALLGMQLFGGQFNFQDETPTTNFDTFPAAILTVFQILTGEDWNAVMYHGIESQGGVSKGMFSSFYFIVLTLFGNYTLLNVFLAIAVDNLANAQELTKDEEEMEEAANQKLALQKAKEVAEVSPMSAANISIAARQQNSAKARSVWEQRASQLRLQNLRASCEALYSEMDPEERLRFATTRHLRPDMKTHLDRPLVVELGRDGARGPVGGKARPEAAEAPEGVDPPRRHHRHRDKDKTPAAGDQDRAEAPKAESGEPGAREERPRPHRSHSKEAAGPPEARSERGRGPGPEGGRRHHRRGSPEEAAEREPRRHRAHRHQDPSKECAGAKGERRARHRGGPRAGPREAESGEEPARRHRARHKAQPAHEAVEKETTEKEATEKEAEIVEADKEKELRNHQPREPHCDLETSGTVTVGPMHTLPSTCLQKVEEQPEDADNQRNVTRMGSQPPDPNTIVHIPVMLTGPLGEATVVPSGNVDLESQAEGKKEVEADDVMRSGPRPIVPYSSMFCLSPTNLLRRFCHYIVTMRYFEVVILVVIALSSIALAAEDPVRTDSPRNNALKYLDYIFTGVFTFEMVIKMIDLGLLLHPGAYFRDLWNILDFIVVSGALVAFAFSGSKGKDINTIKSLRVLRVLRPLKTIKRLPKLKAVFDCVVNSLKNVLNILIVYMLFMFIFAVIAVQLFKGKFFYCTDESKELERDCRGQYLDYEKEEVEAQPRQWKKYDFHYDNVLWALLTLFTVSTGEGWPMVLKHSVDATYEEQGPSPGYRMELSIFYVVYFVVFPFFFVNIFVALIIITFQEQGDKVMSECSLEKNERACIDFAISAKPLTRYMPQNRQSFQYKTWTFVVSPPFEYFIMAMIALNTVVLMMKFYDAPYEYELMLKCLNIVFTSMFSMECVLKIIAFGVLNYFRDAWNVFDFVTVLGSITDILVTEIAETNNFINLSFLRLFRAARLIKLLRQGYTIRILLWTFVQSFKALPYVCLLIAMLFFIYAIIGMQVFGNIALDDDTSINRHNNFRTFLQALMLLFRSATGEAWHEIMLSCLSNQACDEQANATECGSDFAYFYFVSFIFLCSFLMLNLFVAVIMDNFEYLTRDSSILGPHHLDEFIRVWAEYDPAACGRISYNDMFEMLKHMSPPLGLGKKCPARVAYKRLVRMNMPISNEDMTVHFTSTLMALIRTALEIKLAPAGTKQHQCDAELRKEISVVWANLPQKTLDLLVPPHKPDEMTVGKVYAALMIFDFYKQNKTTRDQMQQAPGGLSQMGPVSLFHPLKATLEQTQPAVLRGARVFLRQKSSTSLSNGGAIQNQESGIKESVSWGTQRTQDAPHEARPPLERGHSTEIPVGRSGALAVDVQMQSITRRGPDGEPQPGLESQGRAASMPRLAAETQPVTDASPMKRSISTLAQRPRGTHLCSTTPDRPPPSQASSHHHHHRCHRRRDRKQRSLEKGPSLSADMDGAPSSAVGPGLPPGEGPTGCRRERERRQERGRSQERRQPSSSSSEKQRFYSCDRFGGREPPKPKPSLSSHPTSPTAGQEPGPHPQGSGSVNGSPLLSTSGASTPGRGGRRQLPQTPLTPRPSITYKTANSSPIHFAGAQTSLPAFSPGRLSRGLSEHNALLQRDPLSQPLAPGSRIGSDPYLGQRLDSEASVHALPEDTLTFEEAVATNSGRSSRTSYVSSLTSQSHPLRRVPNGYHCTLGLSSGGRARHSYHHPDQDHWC
T1 sequence (P54289 25-956 partner limits assumed): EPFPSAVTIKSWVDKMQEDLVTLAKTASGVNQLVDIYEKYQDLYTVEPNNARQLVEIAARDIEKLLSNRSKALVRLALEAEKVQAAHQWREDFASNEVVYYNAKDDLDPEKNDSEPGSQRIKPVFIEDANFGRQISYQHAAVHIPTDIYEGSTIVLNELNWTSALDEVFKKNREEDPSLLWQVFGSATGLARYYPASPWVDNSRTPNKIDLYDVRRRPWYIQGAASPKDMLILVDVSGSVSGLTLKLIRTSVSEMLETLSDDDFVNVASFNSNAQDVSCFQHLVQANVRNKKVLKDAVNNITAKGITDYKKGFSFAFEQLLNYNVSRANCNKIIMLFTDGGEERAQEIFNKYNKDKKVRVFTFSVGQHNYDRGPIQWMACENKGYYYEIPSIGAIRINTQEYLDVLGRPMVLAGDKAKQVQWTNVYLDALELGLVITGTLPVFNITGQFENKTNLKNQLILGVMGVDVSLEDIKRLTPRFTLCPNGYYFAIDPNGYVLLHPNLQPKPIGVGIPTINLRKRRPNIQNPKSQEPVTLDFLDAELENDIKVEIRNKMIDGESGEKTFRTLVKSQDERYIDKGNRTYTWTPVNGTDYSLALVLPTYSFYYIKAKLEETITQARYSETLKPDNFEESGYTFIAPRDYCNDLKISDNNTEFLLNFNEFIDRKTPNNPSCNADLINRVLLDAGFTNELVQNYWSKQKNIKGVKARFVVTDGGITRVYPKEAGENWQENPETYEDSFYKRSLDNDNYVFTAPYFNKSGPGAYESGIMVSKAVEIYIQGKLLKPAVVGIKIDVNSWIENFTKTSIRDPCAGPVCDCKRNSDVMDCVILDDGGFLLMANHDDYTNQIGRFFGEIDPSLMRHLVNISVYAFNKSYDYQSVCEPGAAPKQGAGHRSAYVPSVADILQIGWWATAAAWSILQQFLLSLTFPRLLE
T1 sequence (P54289 957-1103 partner limits assumed): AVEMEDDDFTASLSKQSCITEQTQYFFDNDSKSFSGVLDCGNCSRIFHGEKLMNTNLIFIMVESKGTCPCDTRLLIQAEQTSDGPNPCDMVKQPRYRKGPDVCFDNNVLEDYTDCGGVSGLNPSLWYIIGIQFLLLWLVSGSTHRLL
T1 sequence (P54284 whole entry partner): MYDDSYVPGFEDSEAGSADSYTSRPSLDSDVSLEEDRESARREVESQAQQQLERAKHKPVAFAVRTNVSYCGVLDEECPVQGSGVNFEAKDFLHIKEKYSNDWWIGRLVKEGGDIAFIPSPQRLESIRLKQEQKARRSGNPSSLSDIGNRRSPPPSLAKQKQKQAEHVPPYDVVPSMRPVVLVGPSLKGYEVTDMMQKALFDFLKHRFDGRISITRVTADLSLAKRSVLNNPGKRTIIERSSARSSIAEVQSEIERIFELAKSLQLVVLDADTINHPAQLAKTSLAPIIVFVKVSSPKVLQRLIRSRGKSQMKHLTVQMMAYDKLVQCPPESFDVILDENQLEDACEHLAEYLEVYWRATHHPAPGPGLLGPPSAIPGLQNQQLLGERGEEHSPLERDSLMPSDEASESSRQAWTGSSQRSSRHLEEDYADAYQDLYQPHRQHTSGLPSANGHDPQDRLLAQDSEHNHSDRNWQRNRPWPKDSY

Row | SMILES | Inhibition of Calcium Flux in IMR-32 Cells % Inhibition at 1 μM [%] | Inhibition of Calcium Flux in IMR-32 Cells % Inhibition at 10 μM [%] | further results
1 | CC(C)C[C@H](NC(=O)N1CCCCCC1)C(=O)N[C@@H](Cc1ccc(OCc2ccccc2)cc1)C(=O)NCc1ccc2c(c1)OCO2 (relative stereo) [Example 222, [S-(R*,R*)]-Azepane-1-carboxylic acid {1-[1-[(benzo[1,3]dioxol-5-ylmethyl)-carbamoyl]-2-(4-benzyloxy-phenyl)-ethylcarbamoyl]-3-methyl-butyl}-amide] | 36 | 84 | –
2 | CC(C)C[C@H](NC(=O)N1CCCCCC1)C(=O)N[C@@H](Cc1ccc(OCc2ccccc2)cc1)C(=O)NCCCN1CCN(C)CC1 [Example 187, [S-(R*,R*)]-Azepane-1-carboxylic acid (1-{2-(4-benzyloxy-phenyl)-1-[3-(4-methyl-piperazin-1-yl)-propylcarbamoyl]-ethylcarbamoyl}-3-methyl-butyl)-amide] | – | – | inhibition at 1 µM: 20%; inhibition at 10 µM: 77%; IC50: 4 µM
3 | CC(C)CC(NC(=O)N1CCCCCC1)C(=O)NC(Cc1ccc(OCc2ccccc2)cc1)C(=O)N1CCCC(O)C1 (centres unmarked) [Example 234, Azepane-1-carboxylic acid {1-[1-(4-benzyloxy-benzyl)-2-(3-hydroxy-piperidin-1-yl)-2-oxo-ethylcarbamoyl]-3-methyl-butyl}-amide] | – | – | inhibition at 1 µM: 32%; inhibition at 10 µM: 67%
4 | Cc1cccc(C)c1NC(=O)N[C@@H](CC(C)C)C(=O)N[C@@H](Cc1ccc(OCc2ccccc2)cc1)C(=O)OC(C)(C)C (relative stereo) [Example 62, [S-(R*,R*)]-3-(4-Benzyloxy-phenyl)-2-{2-[3-(2,6-dimethyl-phenyl)-ureido]-4-methyl-pentanoylamino}-propionic acid tert-butyl ester] | 29 | – | –
5 | CC(C)CC(NC(=O)N1CCCCCC1)C(=O)NC(Cc1ccc(OCc2ccccc2)cc1)C(=O)NCCCN1CCCCC1C (centres unmarked) [Example 196, Azepane-1-carboxylic acid (1-{2-(4-benzyloxy-phenyl)-1-[3-(2-methyl-piperidin-1-yl)-propylcarbamoyl]-ethylcarbamoyl}-3-methyl-butyl)-amide] | – | – | IC50: 0.7 µM
6 | CC(C)C[C@H](NC(=O)NCc1ccccc1)C(=O)N[C@@H](Cc1ccc(OCc2ccccc2)cc1)C(=O)OC(C)(C)C (relative stereo) [Example 60, [S-(R*,R*)]-3-(4-Benzyloxy-phenyl)-2-[2-(3-benzyl-ureido)-4-methyl-pentanoylamino]-propionic acid tert-butyl ester] | 24 | – | –
7 | CCCCCCC(=O)N[C@@H](CC(C)C)C(=O)N[C@@H](Cc1ccc(OCc2ccccc2)cc1)C(=O)OC(C)(C)C (relative stereo) [Example 114, [S-(R*,R*)]-3-(4-Benzyloxy-phenyl)-2-(2-heptanoylamino-4-methyl-pentanoylamino)-propionic acid tert-butyl ester] | – | 66 | –
8 | CC(C)C[C@H](NC(=O)NC(C)C)C(=O)N[C@@H](Cc1ccc(OCc2ccccc2)cc1)C(=O)OC(C)(C)C (relative stereo) [Example 87, [S-(R*,R*)]-3-(4-Benzyloxy-phenyl)-2-[2-(3-isopropyl-ureido)-4-methyl-pentanoylamino]-propionic acid tert-butyl ester] | 37 | – | –
9 | CC(C)C[C@H](NS(=O)(=O)c1cc(Cl)cc(Cl)c1)C(=O)N[C@@H](Cc1ccc(OCc2ccccc2)cc1)C(=O)OC(C)(C)C (relative stereo) [Example 106, [S-(R*,R*)]-3-(4-Benzyloxy-phenyl)-2-[2-(3,5-dichloro-benzenesulfonylamino)-4-methylpentanoylamino]-propionic acid tert-butyl ester] | 32 | – | –
10 | CC(C)C[C@H](NS(=O)(=O)c1cccs1)C(=O)N[C@@H](Cc1ccc(OCc2ccccc2)cc1)C(=O)OC(C)(C)C (relative stereo) [Example 107, [S-(R*,R*)]-3-(4-Benzyloxy-phenyl)-2-[4-methyl-2-(thiophene-2-sulfonylamino)-pentanoylamino]-propionic acid tert-butyl ester] | – | 57 | –
11 | CCCC(=O)N[C@@H](CC(C)C)C(=O)N[C@@H](Cc1ccc(OCc2ccccc2)cc1)C(=O)OC(C)(C)C (relative stereo) [Example 118, [S-(R*,R*)]-3-(4-Benzyloxy-phenyl)-2-(2-butyrylamino-4-methyl-pentanoylamino)-propionic acid tert-butyl ester] | – | 80 | –
12 | CC(C)C[C@H](NC(=O)N1CCCCCC1)C(=O)N[C@@H](Cc1ccc(OCc2ccccc2)cc1)C(=O)NCc1ccccc1 [Example 263, [S-(R*,R*)]-Azepane-1-carboxylic acid {1-[1-benzylcarbamoyl-2-(4-benzyloxy-phenyl)-ethylcarbamoyl]-3-methyl-butyl}-amide] | – | – | IC50: 1.2 µM
13 | COc1cccc(C(=O)N[C@@H](CC(C)C)C(=O)N[C@@H](Cc2ccc(OCc3ccccc3)cc2)C(=O)OC(C)(C)C)c1 (relative stereo) [Example 96, [S-(R*,R*)]-3-(4-Benzyloxy-phenyl)-2-[2-(3-methoxy-benzoylamino)-4-methyl-pentanoylamino]-propionic acid tert-butyl ester] | 33 | – | –
14 | Cc1onc(-c2ccccc2)c1C(=O)N[C@@H](CC(C)C)C(=O)N[C@@H](Cc1ccc(OCc2ccccc2)cc1)C(=O)OC(C)(C)C (relative stereo) [Example 131, [(S-(R*,R*)]-3-(4-Benzyloxy-phenyl)-2-{4-methyl-2-[(5-methyl-3-phenyl-isoxazole-4-carbonyl)amino]-pentanoylamino}-propionic acid tert-butyl ester] | – | 44 | –
15 | CC(C)C[C@H](NC(=O)Nc1ccc(Cl)c(Cl)c1)C(=O)N[C@@H](Cc1ccc(OCc2ccccc2)cc1)C(=O)OC(C)(C)C (relative stereo) [Example 85, [S-(R*,R*)]-3-(4-Benzyloxy-phenyl)-2-{2-[3-(3,4-dichloro-phenyl)-ureido]-4-methyl-pentanoylamino}-propionic acid tert-butyl ester] | 30 | – | –
16 | CC(C)C[C@H](NC(=O)N1CCCCCC1)C(=O)N[C@@H](Cc1ccc(OCc2ccccc2)cc1)C(=O)N1CCc2ccccc2C1 [Example 201, [S-(R*,R*)]-Azepane-1-carboxylic acid {1-[1-(4-benzyloxy-benzyl)-2-(3,4-dihydro-1H-isoquinolin-2-yl)-2-oxo-ethylcarbamoyl]-3-methyl-butyl}-amide] | – | – | inhibition at 1 µM: 29%; inhibition at 10 µM: 81%; IC50: 2.4 µM
17 | CC(C)C[C@H](NC(=O)N1CCCCCC1)C(=O)N[C@@H](Cc1ccc(OCc2ccccc2)cc1)C(=O)OCc1ccccc1 (relative stereo) [Example 14, [S-(R*,R*)]-2-{2-[(Azepane-1-carbonyl)-amino]-4-methyl-pentanoylamino}-3-(4-benzyloxy-phenyl)-propionic acid benzyl ester] | 45 | – | –
18 | CNC(=S)N[C@@H](CC(C)C)C(=O)N[C@@H](Cc1ccc(OCc2ccccc2)cc1)C(=O)OC(C)(C)C (relative stereo) [Example 51, [S-(R*,R*)]-3-(4-Benzyloxy-phenyl)-2-[4-methyl-2-(3-methyl-thioureido)-pentanoylamino]-propionic acid tert-butyl ester] | 32 | 85 | –
19 | CC(C)(C)NC(=O)[C@H](Cc1ccc(OCc2ccccc2)cc1)NC(=O)[C@H](CCCCC(=O)OC(C)(C)C)NC(=O)N1CCCCCC1 [Example 164, [S-(R*,R*)]-6-[(Azepane-1-carbonyl)-amino]-6-[2-(4-benzyloxy-phenyl)-1-tert-butylcarbamoyl-ethylcarbamoyl]-hexanoic acid tert-butyl ester] | – | – | IC50: 0.9 µM
20 | CC(C)CC(NC(=O)N1CCCCCC1)C(=O)NC(Cc1ccc(OCc2ccccc2)cc1)C(=O)NCCC1CCCN1C (centres unmarked) [Example 193, Azepane-1-carboxylic acid (1-{2-(4-benzyloxy-phenyl)-1-[2-(1-methyl-pyrrolidin-2-yl)-ethylcarbamoyl]-ethylcarbamoyl}-3-methyl-butyl)-amide] | – | – | IC50: 3.2 µM
21 | CC(C)C[C@H](NC(=O)N1CCCCCC1)C(=O)N[C@@H](Cc1ccc(OCc2ccccc2)cc1)C(=O)N1CCC(O)CC1 (relative stereo) [Example 235, [S-(R*,R*)]-Azepane-1-carboxylic acid {1-[1-(4-benzyloxy-benzyl)-2-(4-hydroxy-piperidin-1-yl)-2-oxo-ethylcarbamoyl]-3-methyl-butyl}-amide] | 20 | 64 | –
22 | Cc1nn(C)c(Cl)c1S(=O)(=O)N[C@@H](CC(C)C)C(=O)N[C@@H](Cc1ccc(OCc2ccccc2)cc1)C(=O)OC(C)(C)C (relative stereo) [Example 110, [S-(R*,R*)]-3-(4-Benzyloxy-phenyl)-2-[2-(5-chloro-1,3-dimethyl-1H-pyrazole-4-sulfonylamino)-4-methyl-pentanoylamino]-propionic acid tert-butyl ester] | – | 76 | –
23 | CC(C)C[C@H](NC(=O)Nc1ccc([N+](=O)[O-])cc1)C(=O)N[C@@H](Cc1ccc(OCc2ccccc2)cc1)C(=O)OC(C)(C)C (relative stereo) [Example 55, [S-(R*,R*)]-3-(4-Benzyloxy-phenyl)-2-{4-methyl-2-[3-(4-nitro-phenyl)-ureido]pentanoylamino}-propionic acid tert-butyl ester] | 14 | 46 | –
